Data published in patent US20150025139A1, “INGENOL MEBUTATE IN COMBINATION WITH CRYOTHERAPY FOR THE TREATMENT OF ACTINIC KERATOSIS” (LEO Laboratories Limited, priority 2012, published 2015).

Legend:
[1] = system: actinic keratosis, face and scalp; settings: earlier Phase 3 studies, cited from earlier work
[2] = system: actinic keratosis (AK) lesions on the face or scalp; assay type: in vivo, human
Method: In the context of the present invention partial clearance of AKs are defined as 75% or greater reduction in the number of clinically visible AKs in the selected treatment area from baseline.
A Phase 3, multi-centre, randomised, two-arm, parallel group, double-blinded, vehicle-controlled, 12-month study is conducted (See FIG. 1). Eligible subjects with 4 to 8 clinically typical, visible and discrete AKs within a contiguous 25 cm^2 treatment area on the face and scalp will be randomised to one of two arms. Treatment Arm A will receive cryotherapy to all visible AKs (4-8 lesions, “baseline lesions”) in the selected treatment area then, after 2-4 weeks healing time, field treatment with ingenol mebutate (PEP005 Gel) 0.015% once daily for 3 consecutive days. Treatment Arm B will receive cryotherapy to all visible AKs (4-8 lesions, “baseline lesions”) in the selected treatment area then, after 3 weeks healing time, field treatment with vehicle gel once daily for 3 consecutive days.
Eligible subjects include male or female, at least 18 years of age, with 4 to 8 clinically typical, visible, and discrete AK lesions within a 25 cm^2 contiguous treatment area on the face or scalp. Exclusion criteria stipulate restrictions for prohibited treatments and procedures prior to study entry. This sample is representative of the population which will be treated for AK.
A Phase 3, multi-centre, randomised, two-arm, parallel group, double-blinded, vehicle-controlled, 12-month study is being conducted (See FIG. 1). Eligible subjects with 4 to 8 clinically typical, visible and discrete AKs within a contiguous 25 cm^2 treatment area on the face and scalp were randomised to one of two arms. Treatment Arm A received cryotherapy to all visible AKs (4-8 lesions, “baseline lesions”) in the selected treatment area then, after 2-4 weeks healing time, they received field treatment with ingenol mebutate (PEP005 Gel) 0.015% once daily for 3 consecutive days. […]

[3] = Phase 3 study: local skin responses (composite LSR score); assay type: in vivo, human
Method: (§1) For safety, AEs and LSRs will be recorded. Local skin responses will be graded using a scale that was developed by the sponsor and used in the previous clinical studies. This is a defined grading scale to ensure that a clear and systematic assessment of LSRs is performed. The LSR Grading Scale employs a 0 to 4 scoring system for each category to be assessed with photographs and definitions of each grade. The LSR Grading Scale has been published previously.
The incidence and grade of LSRs in the LSR safety set will be summarized by treatment arm overall and at each visit by anatomical location. Local skin response grades will be summarized by frequency counts and descriptive statistics by treatment arm and visit for each of the six individual LSRs: erythema, flaking/scaling, crusting, swelling, vesiculation/pustulation, and erosion/ulceration.
A composite (sum) score will be obtained by summing the six individual LSR scores at each visit. The composite score and change from baseline will be summarized by treatment arm at each visit using descriptive statistics. The first visit at which the highest sum score is attained will be summarized by treatment arm. For those subjects whose LSR sum score increased in intensity from baseline, the first visit at which the LSR returned to the baseline intensity will be presented by treatment arm.
as §1, with “LSRs were” for “LSRs will be”, “responses were” for “responses will be”, “This was” for “This is”, “grade.” for “grade. The LSR Grading Scale has been published previously.”

[4] = Phase 3 study: adverse events related to trial medication; assay type: in vivo, human; settings: face or scalp, week 11 data
Method: as §1
Local skin responses will be converted into MedDRA preferred terms applying the following conversions seen below. These adverse events will be reported separately from adverse events recorded on the adverse event form in the CRF.
as §1, with “LSRs were” for “LSRs will be”, “responses were” for “responses will be”, “This was” for “This is”, “grade.” for “grade. The LSR Grading Scale has been published previously.”
The most common adverse effect is application site pain. None of the severe adverse events were related to trial medication. All adverse effects related to trial medication were resolved at week 11.

SMILES: C/C=C(/C)C(=O)O[C@H]1C(C)=C[C@]23C(=O)[C@@H](C=C(CO)[C@@H](O)[C@]12O)[C@H]1[C@@H](C[C@H]3C)C1(C)C [ingenol mebutate]
- sustained clearance ([1]; 12 month following treatment): around 50%
- complete field clearance ([1]; face and scalp): 37-47%
- percentage of patients with complete clearance (no clinically visible AKs) ([2]; 72 h): 60.5%
- percentage of patients with partial clearance (75% or greater reduction in AKs) ([2]; 72 h): 77.8%
- Median percent reduction from baseline in AK lesion count ([2]; week 11): 100.0%
- composite LSR score at baseline ([3]; baseline, before cryosurgery and topical treatment): 2.2
- mean (SD) composite LSR score at peak ([3]; peak at visit 3): 8.5 (4.7)
- mean composite LSR score, course after topical treatment ([3]; week 5, 2 weeks after topical treatment): return to a score similar to that of earlier visits
- tolerability of treatment after cryosurgery [4]: well tolerated
